Measurements reported in ChEMBL document CHEMBL5223175, “Discovery of novel 2-oximino-2-indolylacetamide derivatives as potent anticancer agents capable of inducing cell autophagy and ferroptosis” (Bioorg Med Chem, 2023).
The source made the active and inactive calls. No cut-off for these calls is given here.

Tests used:
[1] = test system: 5-8F; assay: Antitumor activity against human 5-8F cells xenografted in BALB/c mouse assessed as decrease in tumor weight at 10 to 20 mg/kg, ip administered daily; assay type: functional, organism-based; conditions: dose 10-20 mg/kg
[2] = test system: 5-8F; assay: Induction of autophagy in human 5-8F cells assessed as appearance of autophagic vacuoles at 30 uM incubated for 48 hrs by TEM analysis; assay type: functional, cell-based
[3] = test system: 5-8F; assay: Induction of autophagy in human 5-8F cells assessed as increase in Beclin-1 expression at 10 to 30 uM by Western blotting analysis; assay type: functional, cell-based; conditions: dose 10-30 µM
[4] = test system: 5-8F; assay: Induction of apoptosis in human 5-8F cells assessed as upregulation of cleaved PARP expression at 10 to 30 uM incubated for 48 hrs by Western blotting analysis; assay type: functional, cell-based; conditions: dose 10-30 µM
[5] = test system: 5-8F; assay: Downregulation of p-ERK1/2 in human 5-8F cells at 10 to 30 uM by Western blotting analysis; assay type: functional, cell-based; conditions: dose 10-30 µM
[6] = test system: 5-8F; assay: Induction of ferroptosis in human 5-8F cells assessed as appearance of small swollen contractile punctate structures at 30 uM incubated for 48 hrs by MitoTracker Red staining based confocal microscopic analysis; assay type: functional, cell-based
[7] = test system: 5-8F; assay: Induction of ferroptosis in human 5-8F cells assessed as appearance of mitochondrial pyknosis at 30 uM incubated for 48 hrs by TEM analysis; assay type: functional, cell-based
[8] = test system: 5-8F; assay: Induction of ROS generation in human 5-8F cells at 30 uM pretreated with NAC for 2 hrs followed by compound addition and measured after 48 hrs by DCFH-DA staining based flow cytometry analysis; assay type: functional, cell-based
[9] = test system: 5-8F; assay: Antiproliferative activity against human 5-8F cells assessed as decrease in cell viability at 30 uM incubated for 48 hrs in presence of Era; assay type: functional, cell-based
[10] = test system: 5-8F; assay: Induction of ferroptosis in human 5-8F cells assessed as appearance of widened gabs between cristae at 30 uM incubated for 48 hrs by TEM analysis; assay type: functional, cell-based
[11] = Toxicity in BALB/c mouse xenografted with human 5-8F cells assessed as change in lung morphology at 10 to 20 mg/kg, ip administered daily by H and E staining based assay; assay type: organism-based; conditions: in vivo, dose 10-20 mg/kg
[12] = test system: 5-8F; assay: Induction of apoptosis in human 5-8F cells assessed as increase in dead cells incubated for 48 hrs by microscopic analysis; assay type: functional, cell-based; conditions: dose 10-30 µM
[13] = test system: 5-8F; assay: Induction of apoptosis in human 5-8F cells assessed as downregulation of Bcl-2 expression at 10 to 30 uM incubated for 48 hrs by Western blotting analysis; assay type: functional, cell-based; conditions: dose 10-30 µM
[14] = test system: 5-8F; assay: Induction of autophagy in human 5-8F cells assessed as decrease in p62 expression at 10 to 30 uM by Western blotting analysis; assay type: functional, cell-based; conditions: dose 10-30 µM
[15] = test system: 5-8F; assay: Antiproliferative activity against human 5-8F cells assessed as cell viability at 80 uM incubated for 72 hrs by CCK-8 assay; assay type: functional; conditions: read-out: Activity
[16] = test system: 5-8F; assay: Induction of ferroptosis in human 5-8F cells assessed as increase in membrane density at 30 uM incubated for 48 hrs by TEM analysis; assay type: functional, cell-based
[17] = test system: 5-8F; assay: Induction of ferroptosis in human 5-8F cells assessed as decrease in GPx4 expression at 10 to 30 uM incubated for 48 hrs by Western blotting analysis; assay type: functional, cell-based; conditions: dose 10-30 µM
[18] = test system: 5-8F; assay: Antitumor activity against human 5-8F cells xenografted in BALB/c mouse assessed as decrease in Ki67 expression at 10 to 20 mg/kg, ip administered daily; assay type: functional, organism-based; conditions: dose 10-20 mg/kg
[19] = test system: 5-8F; assay: Downregulation of STAT3 phosphorylation in human 5-8F cells at 10 to 30 uM incubated for 48 hrs by Western blotting analysis; assay type: functional, cell-based; conditions: dose 10-30 µM
[20] = test system: 5-8F; assay: Antiproliferative activity against human 5-8F cells assessed as decrease in cell viability at 30 uM incubated for 48 hrs in presence of Fer-1; assay type: functional, cell-based
[21] = Toxicity in BALB/c mouse xenografted with human 5-8F cells assessed as change in kidney morphology at 10 to 20 mg/kg, ip administered daily by H and E staining based assay; assay type: organism-based; conditions: in vivo, dose 10-20 mg/kg

Cn1cc(/C(=N\O)C(=O)Nc2ccc(Cl)cc2)c2ccccc21
Activity [1]: Active | Activity [2]: Active | Activity [3]: Active | Activity [4]: Active | Activity [5]: Active | Activity [6]: Active | Activity [7]: Active | Activity [8]: inactive | Activity [9]: Active | Activity [10]: Active | Activity [11]: Non-Toxic | Activity [12]: Dose-Dependent Effect | Activity [13]: Active | Activity [14]: Active | viability at 80 µM [15]: 7.8% | Activity [16]: Active | Activity [17]: Active | Activity [18]: Active | Activity [19]: Active | Activity [20]: inactive | Activity [21]: Non-Toxic
